“And” between values parts separate entries of the source, which are not always exact repeats. Identical values can stand only once.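 How tested: cells in 96-well plates exposed to compound for 48 hours at five concentrations. GI50 = concentration required for 50% inhibition of growth. TGI: total growth inhibition.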
Assays:
Assay in all cases: NCI tumour cell line growth inhibition, 48 h
A549 NSCLC = tested on: A549 NSCLC
ACHN renal = tested on: ACHN renal
CAKI-1 renal = tested on: CAKI-1 renal
HCT-116 colon = tested on: HCT-116 colon
KM12 colon = tested on: KM12 colon
NCI-H460 lung = tested on: NCI-H460 lung
OVCAR-8 ovarian = tested on: OVCAR-8 ovarian
SF-539 CNS = tested on: SF-539 CNS
T-47D breast = tested on: T-47D breast
UACC-62 melanoma = tested on: UACC-62 melanoma

| SMILES | GI50 (A549 NSCLC) | TGI (A549 NSCLC) | GI50 (ACHN renal) | TGI (ACHN renal) | GI50 (CAKI-1 renal) | TGI (CAKI-1 renal) | GI50 (HCT-116 colon) | TGI (HCT-116 colon) [µM] | GI50 (KM12 colon) | TGI (KM12 colon) | GI50 (NCI-H460 lung) [µM] | TGI (NCI-H460 lung) | GI50 (OVCAR-8 ovarian) | TGI (OVCAR-8 ovarian) | TGI (SF-539 CNS) | GI50 (T-47D breast) [µM] | TGI (T-47D breast) | GI50 (UACC-62 melanoma) [µM] | TGI (UACC-62 melanoma) | GI50 (SF-539 CNS) |
| --- | --- | --- | --- | --- | --- | --- | --- | --- | --- | --- | --- | --- | --- | --- | --- | --- | --- | --- | --- | --- |
| C/C=C/[C@H]1O[C@@H]2C(=C[C@H]1O)C(=O)O[C@H]2C | 19 µM | 42.3 µM | 7.71 µM | 22.9 µM | 5.3 µM | 17.1 µM | 4.19 µM | 16.7 | 33.3 µM | > 78 µM | > 92 | > 100 µM | 24.8 µM | > 56.8 µM | 3.38 µM | 7.34 | 25.5 µM | 17.6 | 33.5 µM |  |
| CCOC(=O)c1oc2ccc([N+](=O)[O-])c3c2c1CCC3 |  | > 100 µM |  | > 100 µM |  | > 77.5 µM |  | > 100 |  | > 100 µM |  | > 100 µM |  | > 100 µM | 39.7 µM |  | > 31.6 µM |  | > 54.8 µM |  |
| C[n+]1c(-c2ccc(/C=N/NC(=O)c3ccc(C(=O)N/N=C/c4ccc(-c5cn6ccccc6[n+]5C)cc4)cc3)cc2)cn2ccccc21 | 176 µM | 314 µM | 752 µM | > 1000 µM | > 1000 µM | > 1000 µM | > 1000 µM | > 1000 | > 1000 µM | > 1000 µM | > 1000 | > 1000 µM | 184 µM | 323 µM | 349 µM | 372 | 928 µM | 177 | 316 µM | 206 µM |
| COc1cc(-c2cc(/C=C/C(=O)c3ccc(Cl)c(Cl)c3)[nH]n2)cc(OC)c1OC | 18.7 µM | > 100 µM | 21.4 µM | > 100 µM | 16.9 µM | > 100 µM | 2.95 µM | 21.5 | 3.37 µM | > 100 µM | 4.91 | 36.6 µM | 6.3 µM | 34 µM | 18.7 µM | 1.66 | 15.7 µM | 18.8 | > 100 µM | 4.31 µM |
| CC(C)n1nc(-c2ccc3oc(N)nc3c2)c2c(N)ncnc21 | 0.0156 µM and 0.0191 µM | 2.88 µM and 1.03 µM | 0.0105 µM and 0.013 µM | 1.14 µM and 0.82 µM | < 0.0157 µM and 0.0161 µM | 0.725 µM and 0.265 µM | 0.0387 µM and 0.0361 µM | 15 | 0.0222 µM and 0.0179 µM | 5.01 µM and 2.24 µM | < 0.01 | 36.3 µM and 16.8 µM | 0.0246 µM and 0.0218 µM | 1.24 µM and 0.506 µM | 0.0902 µM and 0.113 µM | < 0.01 | 0.016 µM and 0.0155 µM | < 0.01 | 0.0317 µM and 0.049 µM | 0.0184 µM and 0.0175 µM |
| Cn1c2ccccc2c2c3[nH][nH]c(=O)c3c3c4ccccc4[nH]c3c21 | 3.22 µM | 16.8 µM | 2.6 µM | > 100 µM | 2.22 µM | > 100 µM | 1.32 µM | 92.5 | 0.493 µM | 10.5 µM | 1.57 | 10.8 µM | 2.9 µM | 28 µM | 3.12 µM | 2.05 | 13.4 µM | 2.07 | 5.81 µM | 1.22 µM |
| COCCN1CCN(Cc2ccc(-c3n[nH]c4c3C(=O)c3c(NC(=O)NN5CCOCC5)cccc3-4)cc2)CC1 | 0.0289 µM | 0.214 µM | 0.0512 µM | > 10 µM | 0.0277 µM | > 10 µM | 0.00897 µM | 1.14 | 0.0278 µM | 0.572 µM | 0.0274 | 0.623 µM | 0.0309 µM |  | 0.086 µM | 0.0216 |  | 0.0145 | 0.0462 µM | 0.029 µM |
| CN(C)CC(C(=O)Cc1ccccc1)c1ccccc1 (configuration not stated) | 16.7 µM | 35.5 µM | 1.97 µM | 3.53 µM | 1.57 µM | 3.01 µM | 1.72 µM | 3.3 | 1.07 µM | 2.49 µM | 4.24 | 14.8 µM | 6.75 µM | 23.1 µM | 3.99 µM | 1.11 | 4.91 µM | 6.16 | 20.1 µM | 1.87 µM |
| N=C(N)c1ccc(NCCOCCNc2ccc(C(=N)N)cc2)cc1 | 14.4 µM | > 100 µM | 36.1 µM | > 100 µM | > 100 µM | > 100 µM | 49.4 µM | > 100 | 43.8 µM | > 100 µM | 2.94 | > 100 µM | 34.4 µM | > 100 µM | > 100 µM | 7.17 | 75.6 µM | 29.2 | > 100 µM | 36.8 µM |
| Oc1cccc(/C=N/Nc2nnc(N/N=C/c3cccc(O)c3)c3ccccc23)c1 |  | 57.5 µM |  | 40.7 µM |  | 83.3 µM |  | 43.1 |  | > 100 µM |  | > 100 µM |  | 18.1 µM | 34.6 µM |  | 61.8 µM |  | 30.2 µM |  |
| C/C(=N\N=C(\[Se])N(C)C)c1ccccn1 |  | 13.5 µM |  | 13.2 µM |  | 16.1 µM |  | 14.2 |  | 17.9 µM |  | 4.17 µM |  | 6.46 µM | 9.03 µM |  | 32.3 µM |  | 2.4 µM |  |
| Nc1nc(N)c2c(n1)NC(c1ccccc1)C1CCc3ccccc3C1=N2 (configuration not stated) | 7.11 µM | 26 µM | 4.38 µM | 16.8 µM | 3.97 µM | 18.3 µM | 2.97 µM | 12.7 | 4.07 µM | 14.9 µM | 3.81 | 14.4 µM | 4.71 µM | 25.4 µM | 18.8 µM | 4.57 | 25.6 µM | 3.11 | 18.2 µM | 5.81 µM |

From PubChem BioAssay (NCI)
